Assay results from patent US12187723B2 (BRISTOL-MYERS SQUIBB COMPANY, priority 2019, dated 2025).

Assays:
human TLR8 = biological target: T1, human TLR8 (Homo sapiens, UniProt Q9NR97); test: TLR8 inhibition reporter assay (HEK-Blue SEAP); type: cell-based; settings: HEK-Blue cells overexpressing human TLR8, R848 15.9 μM, 22 hour incubation
T1 construct: host or cells: HEK-Blue cells
T1 sequence (Q9NR97 27-1041): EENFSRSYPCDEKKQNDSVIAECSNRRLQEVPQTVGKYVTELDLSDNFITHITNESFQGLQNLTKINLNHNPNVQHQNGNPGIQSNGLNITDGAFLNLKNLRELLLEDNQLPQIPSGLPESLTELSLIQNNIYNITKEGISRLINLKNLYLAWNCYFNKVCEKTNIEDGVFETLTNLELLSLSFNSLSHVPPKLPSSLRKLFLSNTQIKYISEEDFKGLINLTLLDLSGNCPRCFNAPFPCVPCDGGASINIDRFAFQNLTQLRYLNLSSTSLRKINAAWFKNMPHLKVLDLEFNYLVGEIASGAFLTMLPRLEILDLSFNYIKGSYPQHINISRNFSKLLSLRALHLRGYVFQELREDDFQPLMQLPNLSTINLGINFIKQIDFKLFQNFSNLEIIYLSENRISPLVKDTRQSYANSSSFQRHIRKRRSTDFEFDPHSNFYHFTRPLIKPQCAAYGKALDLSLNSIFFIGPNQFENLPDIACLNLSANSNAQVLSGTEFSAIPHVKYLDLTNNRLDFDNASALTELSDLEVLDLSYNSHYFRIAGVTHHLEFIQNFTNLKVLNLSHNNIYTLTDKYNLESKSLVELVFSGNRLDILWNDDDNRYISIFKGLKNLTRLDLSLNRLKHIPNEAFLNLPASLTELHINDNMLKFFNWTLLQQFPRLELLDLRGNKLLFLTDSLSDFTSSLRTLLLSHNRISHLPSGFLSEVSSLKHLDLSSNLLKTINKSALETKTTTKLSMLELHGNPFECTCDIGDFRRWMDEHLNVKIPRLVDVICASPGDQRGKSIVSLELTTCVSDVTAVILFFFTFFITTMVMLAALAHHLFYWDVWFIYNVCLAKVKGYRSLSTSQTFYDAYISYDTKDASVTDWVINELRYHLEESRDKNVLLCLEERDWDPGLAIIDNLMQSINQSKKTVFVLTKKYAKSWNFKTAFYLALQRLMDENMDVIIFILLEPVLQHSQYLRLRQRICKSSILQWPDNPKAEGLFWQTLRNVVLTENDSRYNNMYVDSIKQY
How it was run: (§1)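 Compound treatment: 30 min, RT, 0.05 nM–50 μM final. Agonist: TLR7 gardiquimod 7.5 μM; TLR8 R848 15.9 μM; TLR9 ODN2006 5 nM. Incubation 22 h, 37 °C, 5% CO2. Readout SEAP, HEK-Blue Detection.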

human TLR9 = biological target: T2, human TLR9 (Homo sapiens, UniProt Q9NR96); test: TLR9 inhibition reporter assay (HEK-Blue SEAP); type: cell-based; settings: HEK-Blue cells overexpressing human TLR9, ODN2006 5 nM, 22 hour incubation
T2 construct: host or cells: HEK-Blue cells
T2 sequence (Q9NR96 26-1032): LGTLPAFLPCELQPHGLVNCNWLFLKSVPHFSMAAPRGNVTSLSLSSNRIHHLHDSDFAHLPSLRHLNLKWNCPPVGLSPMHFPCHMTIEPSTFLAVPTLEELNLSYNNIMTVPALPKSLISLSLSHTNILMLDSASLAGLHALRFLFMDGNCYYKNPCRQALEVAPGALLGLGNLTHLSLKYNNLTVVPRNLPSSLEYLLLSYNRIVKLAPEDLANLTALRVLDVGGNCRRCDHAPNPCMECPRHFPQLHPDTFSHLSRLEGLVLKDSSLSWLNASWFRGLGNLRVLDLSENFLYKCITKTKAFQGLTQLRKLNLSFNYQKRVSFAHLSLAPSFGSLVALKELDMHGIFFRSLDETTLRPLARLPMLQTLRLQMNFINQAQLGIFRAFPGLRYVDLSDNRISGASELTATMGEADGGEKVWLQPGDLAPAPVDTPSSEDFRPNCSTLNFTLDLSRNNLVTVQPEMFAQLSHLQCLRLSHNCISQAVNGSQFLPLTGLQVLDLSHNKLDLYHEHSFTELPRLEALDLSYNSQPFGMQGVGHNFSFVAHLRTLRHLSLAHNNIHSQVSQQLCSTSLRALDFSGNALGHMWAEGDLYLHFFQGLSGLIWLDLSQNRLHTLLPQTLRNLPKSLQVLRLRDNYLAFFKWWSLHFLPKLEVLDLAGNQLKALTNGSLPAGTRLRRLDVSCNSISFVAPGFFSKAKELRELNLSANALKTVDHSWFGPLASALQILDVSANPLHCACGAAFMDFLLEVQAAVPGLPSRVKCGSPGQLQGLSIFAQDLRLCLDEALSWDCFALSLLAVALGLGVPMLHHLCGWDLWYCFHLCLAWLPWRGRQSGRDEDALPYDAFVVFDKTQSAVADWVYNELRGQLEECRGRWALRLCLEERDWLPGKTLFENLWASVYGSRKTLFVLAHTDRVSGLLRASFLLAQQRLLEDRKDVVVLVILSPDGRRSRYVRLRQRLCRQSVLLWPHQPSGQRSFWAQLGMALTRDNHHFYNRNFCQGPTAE
How it was run: as §1

| Structure (SMILES) | IC50 (human TLR8) [nM] | IC50 (human TLR9) [nM] |
| --- | --- | --- |
| CCCN(CCC)[C@H]1CC[C@@H](n2c(=O)[nH]c3cc(-c4cn5ncnc5c(C)c4C)c(C(C)C)cc32)CC1 [Example 199, 5-(7,8-dimethyl-[1,2,4]triazolo[1,5-a]pyridin-6-yl)-1-((1s,4s)-4-(dipropylamino)cyclohexyl)-6-isopropyl-1,3-dihydro-2H-benzo[d]imidazol-2-one] | 0.53 | 3370 |
| Cc1c(-c2cc3[nH]c(=O)n([C@H]4CC[C@@H](NCC5CCOCC5)CC4)c3cc2C(C)C)cn2ncnc2c1C [Example 200, 5-(7,8-dimethyl-[1,2,4]triazolo[1,5-a]pyridin-6-yl)-6-isopropyl-1-((1s,4s)-4-(((tetrahydro-2H-pyran-4-yl)methyl)amino)cyclohexyl)-1,3-dihydro-2H-benzo[d]imidazol-2-one] | 0.13 | 7050 |
| COc1cc(-c2cc3[nH]c(=O)n([C@H]4CC[C@H](NC5COC5)CC4)c3cc2C(C)C)cn2ncnc12 [Example 201, 6-isopropyl-5-(8-methoxy-[1,2,4]triazolo[1,5-a]pyridin-6-yl)-1-((1r,4r)-4-(oxetan-3-ylamino)cyclohexyl)-1,3-dihydro-2H-benzo[d]imidazol-2-one] | 1.54 | 22900 |
| COc1cc(-c2cc3[nH]c(=O)n([C@H]4CC[C@H](N(C)C)CC4)c3cc2C(C)C)cn2ncnc12 [Example 202, 1-((1r,4r)-4-(dimethylamino)cyclohexyl)-6-isopropyl-5-(8-methoxy-[1,2,4]triazolo[1,5-a]pyridin-6-yl)-1,3-dihydro-2H-benzo[d]imidazol-2-one] | 0.81 | 23000 |
| COc1cc(-c2cc3[nH]c(=O)n([C@H]4CC[C@H](NC(C)C)CC4)c3cc2C(C)C)cn2ncnc12 [Example 203, 6-isopropyl-1-((1r,4s)-4-(isopropylamino)cyclohexyl)-5-(8-methoxy-[1,2,4]triazolo[1,5-a]pyridin-6-yl)-1,3-dihydro-2H-benzo[d]imidazol-2-one] | 1.34 | 30900 |
| COc1cc(-c2cc3[nH]c(=O)n([C@H]4CC[C@H](NCC(C)C)CC4)c3cc2C(C)C)cn2ncnc12 [Example 204, 1-((1r,4s)-4-(isobutylamino)cyclohexyl)-6-isopropyl-5-(8-methoxy-[1,2,4]triazolo[1,5-a]pyridin-6-yl)-1,3-dihydro-2H-benzo[d]imidazol-2-one] | 1.23 | 11700 |
| COc1cc(-c2cc3[nH]c(=O)n([C@H]4CC[C@H](N(CC(C)C)CC(C)C)CC4)c3cc2C(C)C)cn2ncnc12 [Example 205, 1-((1r,4r)-4-(diisobutylamino)cyclohexyl)-6-isopropyl-5-(8-methoxy-[1,2,4]triazolo[1,5-a]pyridin-6-yl)-1,3-dihydro-2H-benzo[d]imidazol-2-one] | 1.63 | 11600 |
| COc1cc(-c2cc3[nH]c(=O)n([C@H]4CC[C@H](N(CC5CC5)CC5CC5)CC4)c3cc2C(C)C)cn2ncnc12 [Example 206, 1-((1r,4s)-4-(bis(cyclopropylmethyl)amino)cyclohexyl)-6-isopropyl-5-(8-methoxy-[1,2,4]triazolo[1,5-a]pyridin-6-yl)-1,3-dihydro-2H-benzo[d]imidazol-2-one] | 0.57 | 6530 |
| COc1cc(-c2cc3[nH]c(=O)n([C@H]4CC[C@H](NC5CCN(C(C)C)CC5)CC4)c3cc2C(C)C)cn2ncnc12 [Example 207, 6-isopropyl-1-((1r,4r)-4-((1-isopropylpiperidin-4-yl)amino)cyclohexyl)-5-(8-methoxy-[1,2,4]triazolo[1,5-a]pyridin-6-yl)-1,3-dihydro-2H-benzo[d]imidazol-2-one] | 4.15 | 4630 |
| CCc1cc2c(cc1-c1cc(OC)c3ncnn3c1)[nH]c(=O)n2[C@@H]1CCCN(CCC(C)(C)C)C1 [Example 208, (R)-1-(1-(3,3-dimethylbutyl)piperidin-3-yl)-6-ethyl-5-(8-methoxy-[1,2,4]triazolo[1,5-a]pyridin-6-yl)-1,3-dihydro-2H-benzo[d]imidazol-2-one] | 3.77 | 3320 |
| CCc1cc2c(cc1-c1cc(OC)c3ncnn3c1)[nH]c(=O)n2[C@@H]1CCCN(CC2CCCC2)C1 [Example 209, (R)-1-(1-(cyclopentylmethyl)piperidin-3-yl)-6-ethyl-5-(8-methoxy-[1,2,4]triazolo[1,5-a]pyridin-6-yl)-1,3-dihydro-2H-benzo[d]imidazol-2-one] | 20.4 | 12700 |
| COc1cc(-c2cc3[nH]c(=O)n([C@@H]4CCCN(CCC(C)(C)C)C4)c3cc2C(C)C)cn2ncnc12 [Example 210, (R)-1-(1-(3,3-dimethylbutyl)piperidin-3-yl)-6-isopropyl-5-(8-methoxy-[1,2,4]triazolo[1,5-a]pyridin-6-yl)-1,3-dihydro-2H-benzo[d]imidazol-2-one] | 3.3 | 2360 |
| COc1cc(-c2cc3[nH]c(=O)n([C@@H]4CCCN(CC5CCCC5)C4)c3cc2C(C)C)cn2ncnc12 [Example 211, (R)-1-(1-(cyclopentylmethyl)piperidin-3-yl)-6-isopropyl-5-(8-methoxy-[1,2,4]triazolo[1,5-a]pyridin-6-yl)-1,3-dihydro-2H-benzo[d]imidazol-2-one] | 0.05 | 2980 |
| CCc1cc2c(cc1-c1cc(OC)c3ncnn3c1)[nH]c(=O)n2[C@@H]1CCCN(C2CCOC2)C1 (stereo partly drawn) [Example 212, 6-ethyl-5-(8-methoxy-[1,2,4]triazolo[1,5-a]pyridin-6-yl)-1-((3R)-1-(tetrahydrofuran-3-yl)piperidin-3-yl)-1,3-dihydro-2H-benzo[d]imidazol-2-one] | 4.4 | > 50000 |
| CCc1cc2c(cc1-c1cc(OC)c3ncnn3c1)[nH]c(=O)n2[C@@H]1CCCN(C2CCOC2)C1 (stereo partly drawn) [Example 213, 6-ethyl-5-(8-methoxy-[1,2,4]triazolo[1,5-a]pyridin-6-yl)-1-((3R)-1-(tetrahydrofuran-3-yl)piperidin-3-yl)-1,3-dihydro-2H-benzo[d]imidazol-2-one] | 4.62 | > 50000 |
| CCc1cc2c(cc1-c1cc(OC)c3ncnn3c1)[nH]c(=O)n2[C@@H]1CCCN(C2CCCOC2)C1 (stereo partly drawn) [Example 215, 6-ethyl-5-(8-methoxy-[1,2,4]triazolo[1,5-a]pyridin-6-yl)-1-((3R)-1-(tetrahydro-2H-pyran-3-yl)piperidin-3-yl)-1,3-dihydro-2H-benzo[d]imidazol-2-one] | 13.7 | 21000 |
| COc1cc(-c2cc3[nH]c(=O)n([C@@H]4CCCN(C5CCOC5)C4)c3cc2C(C)C)cn2ncnc12 (stereo partly drawn) [Example 216, 6-isopropyl-5-(8-methoxy-[1,2,4]triazolo[1,5-a]pyridin-6-yl)-1-((3R)-1-(tetrahydrofuran-3-yl)piperidin-3-yl)-1,3-dihydro-2H-benzo[d]imidazol-2-one] | 26.4 | > 50000 |
